Test results taken from patent US20200024278A1, “COMPOSITION COMPRISING ANTIBIOTIC COMPOUND AND AN HETEROCYCLIC COMPOUND AND THEIR USE IN PREVENTING OR TREATING BACTERIAL INFECTIONS” (MUTABILIS, priority 2016, published 2020).

Key:
Assay in all cases: MIC, broth microdilution (CLSI), substance alone or ATB combined with compound at 4 or 8 μg/mL
[1] = test system: SPN 49619; assay type: cell-based, S. pneumoniae; settings: SPN 49619
Method in brief: (§1)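 Per CLSI-M7-A7, MICs are determined in cation-adjusted Mueller-Hinton broth with a final inoculum of 5·10^5 CFU/mL. Plates incubate 16-20 h at 35° C in air and are read by eye. Fosfomycin assays carry 25 μg/ml glucose-6-phosphate.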

[2] = test system: ECO 190317; assay type: cell-based, E. coli; settings: ECO 190317
Method in brief: as §1

[3] = test system: ECO UFR39; assay type: cell-based, E. coli; settings: ECO UFR39
Method in brief: as §1

[4] = test system: SAU 29213; assay type: cell-based, S. aureus; settings: SAU 29213
Method in brief: as §1

[5] = test system: KPN 6299; assay type: cell-based, K. pneumoniae
Method in brief: as §1

[6] = test system: KPN UFR42; assay type: cell-based, K. pneumoniae; settings: KPN UFR42
Method in brief: as §1

CN(C)c1cc(NC(=O)CNC(C)(C)C)c(O)c2c1C[C@H]1C[C@H]3[C@H](N(C)C)C(O)=C(C(N)=O)C(=O)[C@@]3(O)C(O)=C1C2=O [TGC]
0.063 µg/mL: MIC ATB combined with Example 7 @8 μgml ([1]; with Example 7 at 8 μg/ml) | MIC ATB combined with Example 13 @8 μg/ml ([1]; with Example 13 at 8 μg/ml) | MIC ATB combined with Example 13 @8 μg/ml ([4]; with Example 13 at 8 μg/ml) | MIC ATB combined with Example 9 @4 μg/ml ([5]; with Example 9 @4 μg/ml) | MIC ATB combined with Example 9 @4 μg/ml ([5]; with Example 9 at 4 μg/ml)
0.5 µg/mL: MIC ATB alone ([3]; antibiotic alone) | MIC ATB combined with Example 13 @8 μg/ml ([5]; with Example 13 at 8 μg/ml) | MIC ATB combined with Example 7 @8 μgml ([6]; with Example 7 at 8 μg/ml)
1 µg/mL: MIC ATB alone ([5]; antibiotic alone) | MIC ATB combined with Example 1 @8 μg/ml ([5]; with Example 1 @8 μg/ml) | MIC ATB combined with Example 1 @8 μg/ml ([5]; with Example 1 at 8 μg/ml) | MIC ATB combined with Example 7 @8 μgml ([5]; with Example 7 at 8 μg/ml)
<=0.031 μg/mL: MIC ATB combined with Example 11 @8 μg/ml ([1]; with Example 11 at 8 μg/ml) | MIC ATB combined with Example 15 @4 μgml ([1]; with Example 15 at 4 μg/ml) | MIC ATB combined with Example 11 @8 μg/ml ([4]; with Example 11 at 8 μg/ml)
2 µg/mL: MIC ATB alone ([6]; antibiotic alone) | MIC ATB combined with Example 1 @8 μg/ml ([6]; with Example 1 @8 μg/ml) | MIC ATB combined with Example 1 @8 μg/ml ([6]; with Example 1 at 8 μg/ml)
0.125 µg/mL: MIC ATB alone ([1]; antibiotic alone) | MIC ATB combined with Example 1 @8 μg/ml ([1]; with Example 1 @8 μg/ml) | MIC ATB combined with Example 1 @8 μg/ml ([1]; with Example 1 at 8 μg/ml) | MIC ATB combined with Example 1 @8 μg/ml ([4]; with Example 1 @8 μg/ml) | MIC ATB combined with Example 1 @8 μg/ml ([4]; with Example 1 at 8 μg/ml)
0.25 µg/mL: MIC ATB alone ([2]; antibiotic alone) | MIC ATB alone ([4]; antibiotic alone) | MIC ATB combined with Example 7 @8 μgml ([4]; with Example 7 at 8 μg/ml) | MIC ATB combined with Example 9 @4 μg/ml ([6]; with Example 9 @4 μg/ml) | MIC ATB combined with Example 9 @4 μg/ml ([6]; with Example 9 at 4 μg/ml)
<0.031 µg/mL: MIC ATB combined with Example 9 @4 μg/ml ([1]; with Example 9 @4 μg/ml) | MIC ATB combined with Example 9 @4 μg/ml ([1]; with Example 9 at 4 μg/ml) | MIC ATB combined with Example 12 @8 μg/ml ([1]; with Example 12 at 8 μg/ml) | MIC ATB combined with Example 14 @8 μg/ml ([1]; with Example 14 at 8 μg/ml) | MIC ATB combined with Example 16 @4 μg/ml ([1]; with Example 16 at 4 μg/ml) | MIC ATB combined with Example 1 @8 μg/ml ([2]; with Example 1 @8 μg/ml) | MIC ATB combined with Example 1 @8 μg/ml ([2]; with Example 1 at 8 μg/ml) | MIC ATB combined with Example 7 @8 μgml ([2]; with Example 7 at 8 μg/ml) | MIC ATB combined with Example 9 @4 μg/ml ([2]; with Example 9 @4 μg/ml) | MIC ATB combined with Example 9 @4 μg/ml ([2]; with Example 9 at 4 μg/ml) | MIC ATB combined with Example 11 @8 μg/ml ([2]; with Example 11 at 8 μg/ml) | MIC ATB combined with Example 12 @8 μg/ml ([2]; with Example 12 at 8 μg/ml) | MIC ATB combined with Example 13 @8 μg/ml ([2]; with Example 13 at 8 μg/ml) | MIC ATB combined with Example 14 @8 μg/ml ([2]; with Example 14 at 8 μg/ml) | MIC ATB combined with Example 15 @4 μgml ([2]; with Example 15 at 4 μg/ml) | MIC ATB combined with Example 16 @4 μg/ml ([2]; with Example 16 at 4 μg/ml) | MIC ATB combined with Example 1 @8 μg/ml ([3]; with Example 1 @8 μg/ml) | MIC ATB combined with Example 1 @8 μg/ml ([3]; with Example 1 at 8 μg/ml) | MIC ATB combined with Example 7 @8 μgml ([3]; with Example 7 at 8 μg/ml) | MIC ATB combined with Example 9 @4 μg/ml ([3]; with Example 9 @4 μg/ml) | MIC ATB combined with Example 9 @4 μg/ml ([3]; with Example 9 at 4 μg/ml) | MIC ATB combined with Example 11 @8 μg/ml ([3]; with Example 11 at 8 μg/ml) | MIC ATB combined with Example 12 @8 μg/ml ([3]; with Example 12 at 8 μg/ml) | MIC ATB combined with Example 13 @8 μg/ml ([3]; with Example 13 at 8 μg/ml) | MIC ATB combined with Example 14 @8 μg/ml ([3]; with Example 14 at 8 μg/ml) | MIC ATB combined with Example 15 @4 μgml ([3]; with Example 15 at 4 μg/ml) | MIC ATB combined with Example 16 @4 μg/ml ([3]; with Example 16 at 4 μg/ml) | MIC ATB combined with Example 9 @4 μg/ml ([4]; with Example 9 @4 μg/ml) | MIC ATB combined with Example 9 @4 μg/ml ([4]; with Example 9 at 4 μg/ml) | MIC ATB combined with Example 12 @8 μg/ml ([4]; with Example 12 at 8 μg/ml) | MIC ATB combined with Example 14 @8 μg/ml ([4]; with Example 14 at 8 μg/ml) | MIC ATB combined with Example 15 @4 μgml ([4]; with Example 15 at 4 μg/ml) | MIC ATB combined with Example 16 @4 μg/ml ([4]; with Example 16 at 4 μg/ml) | MIC ATB combined with Example 11 @8 μg/ml ([5]; with Example 11 at 8 μg/ml) | MIC ATB combined with Example 12 @8 μg/ml ([5]; with Example 12 at 8 μg/ml) | MIC ATB combined with Example 14 @8 μg/ml ([5]; with Example 14 at 8 μg/ml) | MIC ATB combined with Example 15 @4 μgml ([5]; with Example 15 at 4 μg/ml) | MIC ATB combined with Example 16 @4 μg/ml ([5]; with Example 16 at 4 μg/ml)
